Source: ChEMBL document CHEMBL1121483, “Thrombin inhibitors. 1. Ester derivatives of N alpha-(arylsulfonyl)-L-arginine” (J Med Chem, 1980)
pIC50: −log10 of the molar value.

Target: Serine protease 1 (Homo sapiens) (UniProt P07477)
Experiment: Rate of hydrolysis by trypsin relative to TAME
Settings: not given

Serine protease 1 (Homo sapiens), sequence (P07477 whole entry): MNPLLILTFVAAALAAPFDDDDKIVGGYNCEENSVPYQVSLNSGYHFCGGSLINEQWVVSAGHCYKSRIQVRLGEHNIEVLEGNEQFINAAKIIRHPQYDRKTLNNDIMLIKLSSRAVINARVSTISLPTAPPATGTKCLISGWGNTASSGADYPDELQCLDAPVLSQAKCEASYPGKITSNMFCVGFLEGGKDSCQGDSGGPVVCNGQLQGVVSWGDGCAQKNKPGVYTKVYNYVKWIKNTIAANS

Row | Compound | Relative hydrolysis
1 | CN(C)c1cccc2c(S(=O)(=O)NC(CCCN=C(N)N)C(=O)OCCCCl)cccc12 (configuration not stated) | 0.5

Target: T1, Prothrombin (Bos taurus, UniProt P00735)
Experiment: Concentration at which the clotting time was prolonged by twice the control was determined using topical bovine thrombin
Format: functional
Settings: read-out: I50

Row | Compound | pIC50
2 | COC(=O)C(CCCNC(=N)N)NS(=O)(=O)c1cccc2ccccc12 (configuration not stated) | 3.28
3 | COC(=O)C(CCCN=C(N)N)NS(=O)(=O)c1cccc2cc(N(C)C)ccc12 (configuration not stated) | 4.00
4 | CN(C)c1cccc2c(S(=O)(=O)NC(CCCNC(=N)N)C(=O)OCC3CCCO3)cccc12 (configuration not stated) | 4.70
5 | CCOC(=O)C(CCCNC(=N)N)NS(=O)(=O)c1cccc2c(N(C)C)cccc12 (configuration not stated) | 5.10
6 | COC(=O)C(CCCN=C(N)N)NS(=O)(=O)c1cccc([N+](=O)[O-])c1 (configuration not stated) | 2.54
7 | COC(=O)C(CCCN=C(N)N)NS(=O)(=O)c1ccc2ccccc2c1 (configuration not stated) | 3.89
8 | COC(=O)C(CCCN=C(N)N)NS(=O)(=O)c1ccc(N)cc1 (configuration not stated) | 2.32
9 | C#CCCOC(=O)C(CCCN=C(N)N)NS(=O)(=O)c1cccc2c(N(C)C)cccc12 (configuration not stated) | 5.40
10 | COC(=O)C(CCCN=C(N)N)NS(=O)(=O)c1cccc2c(N(C)C)cccc12 (configuration not stated) | 4.70
11 | CCCCCOC(=O)C(CCCN=C(N)N)NS(=O)(=O)c1cccc2c(N(C)C)cccc12 (configuration not stated) | 4.31
12 | CC(C)OC(=O)C(CCCNC(=N)N)NS(=O)(=O)c1cccc2c(N(C)C)cccc12 (configuration not stated) | 4.52
13 | CC(C)COC(=O)C(CCCN=C(N)N)NS(=O)(=O)c1cccc2c(N(C)C)cccc12 (configuration not stated) | 5.00
14 | COC(=O)C(CCCN=C(N)N)NS(=O)(=O)c1ccc(F)cc1 (configuration not stated) | 2.28
15 | CCCOC(=O)C(CCCN=C(N)N)NS(=O)(=O)c1cccc2c(N(C)C)cccc12 (configuration not stated) | 5.70
16 | COCCOC(=O)C(CCCNC(=N)N)NS(=O)(=O)c1cccc2c(N(C)C)cccc12 (configuration not stated) | 5.30
17 | CN(C)c1cccc2c(S(=O)(=O)NC(CCCN=C(N)N)C(=O)O)cccc12 (configuration not stated) | < 3.00
18 | CCC(C)OC(=O)C(CCCNC(=N)N)NS(=O)(=O)c1cccc2c(N(C)C)cccc12 (configuration not stated) | 2.70
19 | CN(C)c1cccc2c(S(=O)(=O)NC(CCCN=C(N)N)C(=O)OC3CCCCC3)cccc12 (configuration not stated) | 4.22
20 | CN(C)c1cccc2c(S(=O)(=O)NC(CCCNC(=N)N)C(=O)OCc3ccccc3)cccc12 (configuration not stated) | 5.70
21 | COC(=O)C(CCCNC(=N)N)NS(=O)(=O)c1ccc(Cl)cc1 (configuration not stated) | 2.57
22 | C/C=C/COC(=O)C(CCCNC(=N)N)NS(=O)(=O)c1cccc2c(N(C)C)cccc12 (configuration not stated) | 5.70
23 | CCC(COC(=O)C(CCCN=C(N)N)NS(=O)(=O)c1cccc2c(N(C)C)cccc12)[N+](=O)[O-] (configuration not stated) | 3.70
24 | COC(=O)C(CCCNC(=N)N)NS(=O)(=O)c1ccc(OC)cc1 (configuration not stated) | 4.00
25 | COC(=O)C(CCCN=C(N)N)NS(=O)(=O)c1ccc([N+](=O)[O-])cc1 (configuration not stated) | 2.62

Target: T1, Prothrombin
Experiment: Concentration at which the clotting time was prolonged by twice the control was determined using commercial topical bovine thrombin.
Format: functional
Settings: not given

Row | Compound | pIC50
26 | COC(=O)C(CCCN=C(N)N)NS(=O)(=O)c1cccc2c(N(C)C)cccc12 (configuration not stated) | 2.70

Target: Prothrombin (Bos taurus) (UniProt P00735)
Experiment: Rate of hydrolysis by thrombin relative to TAME
Settings: not given

Row | Compound | Relative hydrolysis
27 | CN(C)c1cccc2c(S(=O)(=O)NC(CCCN=C(N)N)C(=O)OCCCCl)cccc12 (configuration not stated) | 0.084
